Laboratory results as given in the NIST ThermoML archive (doi:10.1016/j.jct.2018.07.002).
Numbers after ± are expanded uncertainties.

Experiments:
[1] = excess molar enthalpy (molar enthalpy of mixing); xn = mol fraction of the nth substance listed; conditions: 313.15 K, 100 kPa, Liquid, Power-compensation calorimetry
[2] = molar heat capacity at constant pressure; conditions: 100 kPa, Liquid, isoperibol calorimetry

SMILES | excess molar enthalpy ([1]; x1 = 0.017) [kcal/mol] | excess molar enthalpy ([1]; x1 = 0.019) [kcal/mol] | excess molar enthalpy ([1]; x1 = 0.023) [kcal/mol] | excess molar enthalpy ([1]; x1 = 0.027) [kcal/mol] | excess molar enthalpy ([1]; x1 = 0.25) [kcal/mol] | excess molar enthalpy ([1]; x1 = 0.5) [kcal/mol] | molar heat capacity at constant pressure ([2]; 303.15 K) [J/K/mol] | molar heat capacity at constant pressure ([2]; 313.15 K) [J/K/mol] | molar heat capacity at constant pressure ([2]; 323.15 K) [J/K/mol] | molar heat capacity at constant pressure ([2]; 333.15 K) [J/K/mol] | molar heat capacity at constant pressure ([2]; 343.15 K) [J/K/mol] | molar heat capacity at constant pressure ([2]; 353.15 K) [J/K/mol] | molar heat capacity at constant pressure ([2]; 363.15 K) [J/K/mol] | molar heat capacity at constant pressure ([2]; 373.15 K) [J/K/mol]
CCOP(=O)([O-])OCC.CCn1cc[n+](C)c1 [1-ethyl-3-methylimidazolium diethyl phosphate] + O | -0.112 ± 0.00454 | -0.13 ± 0.00526 | -0.154 ± 0.00621 | -0.181 ± 0.00741 | -1.19 ± 0.0478 | -1.26 ± 0.0502 | – | – | – | – | – | – | – | –
CCOP(=O)([O-])OCC.CCn1cc[n+](C)c1 [1-ethyl-3-methylimidazolium diethyl phosphate] | – | – | – | – | – | – | 504.73 ± 32 | 507.38 ± 32 | 510.02 ± 32 | 515.3 ± 32 | 523.23 ± 32 | 528.52 ± 32 | 536.44 ± 32 | 541.73 ± 32
